US9073892B2, “Indazolyl triazol derivatives” (Merck Serono S.A., priority 2010, dated 2015)
Where a name gives a salt, the structure may show the parent alone.

How the values were obtained:
[1] = system: IL1β-induced IL8 release in THP1 cells; assay: IRAK IL8 secretion functional assay; assay type: cell-based; settings: Homo sapiens; THP-1 cells, IL1β 100 ng/ml overnight, IL8 by HTRF; read-out: IC50, Secretion THP-1/IL-β induced IL8 release
In short: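 THP-1 cells (30,000/well, RPMI 1640) were incubated overnight at 37 °C, 5% CO2 with compound (20 μM to 1 nM) plus IL1β at 100 ng/ml final. IL-8 in the supernatant was measured by HTRF with europium cryptate- and XL665-labelled anti-IL8 antibodies, read after 3 h at 30 °C.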

[2] = system: IL-6 secretion in human PBMC; assay: IRAK IL-6 secretion functional assay in human PBMC; assay type: cell-based; settings: preincubated 1 h with test article, stimulated with 10 ng/ml IL1, 18-20 h, ELISA
Description: IRAK IL-6 Secretion Functional Assay in Human PBMC
Human PBMCs from healthy volunteers were purified from buffy coats of heparinized whole blood by density centrifugation on Ficoll-Hypaque. Isolated PBMCs were washed twice in PBS, counted, and seeded at a density of 7×10^4 cells/well in 180 µl of complete RPMI 1640 medium containing 10% heat-inactivated FBS. PBMC were preincubated for 1 h with serial dilutions of test article dissolved in DMSO (final DMSO concentration 0.33%) at 37° C. in a 5% CO2 incubator. PBMC were then stimulated with 10 ng/ml of IL1-(final volume […]) and incubation was continued for 18-20 h. The supernatants were collected and IL-6 was quantified using the Duo-set ELISA kit (R&D Systems) following manufacturer's instructions

LPS-induced TNFα release = assay: LPS-induced cytokine release in mice (TNFα); assay type: in vivo; settings: female C57B6 mice; for inhibition of LPS-induced TNFα release in mice: 30 min before LPS 1 mg/kg i.p., serum 2 hours after LPS
Description: (§1) LPS-Induced Cytokine Release in Mice
(§2) Female C57B6 mice (8-10 weeks 4-6 mice/group) were dosed p.o. with vehicle (40% Kleptose in water), reference compound dexamethasone (1 mg/kg) or three different doses of compound 1 (10, 30 and 60 mg/kg at 10 mL/kg). 30 minutes after compound administrations mice were injected i.p. with LPS (0111:B4, 1 mg/kg). 2 hours after LPS injection mice were sacrificed. Serum was collected; cytokine levels (TNF-α and IL-6) were detected by ELISA or OBA.

LPS-induced IL-6 release = assay: LPS-induced cytokine release in mice (IL-6); assay type: in vivo; settings: female C57B6 mice; for inhibition of LPS-induced IL-6 release in mice: 30 min before LPS 1 mg/kg i.p., serum 2 hours after LPS
Description: as §1, §2

IRAK1/4 human = system: T1, IRAK1/4 human; assay: IRAK1/4 phosphorylation IC50 (enzymatic assay, table 2); assay type: biochemical; settings: human IRAK1/4 phosphorylation
T1 construct: fused on or other part: His tag and TEV cleavage site at the N-terminus
In short: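 Human IRAK-1 or IRAK-4, each carrying a His-TEV tag, was incubated with ATP and compounds in DMSO ranging from 20 µM to 1 nM in 384-well plates, and IRAK-4 reactions also contained STK1-biotin peptide. Reactions ran in 50 mM Hepes pH7.0 with MgCl2, DTT, EGTA and BSA for 2 or 3 hours, with 2% DMSO controls. Inhibition is given as IC50.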

Row | SMILES | melting point [°C] | IC50 [1] [nM] | IC50 [2] [nM] | LPS-induced TNFα release in mice (result in words) (LPS-induced TNFα release; 10, 30 and 60 mg/kg p.o.) | inhibition of LPS-induced TNFα release in mice (LPS-induced TNFα release; 10 mpk po) [% INH] | inhibition of LPS-induced TNFα release in mice (LPS-induced TNFα release; 30 mpk po) [% INH] | inhibition of LPS-induced TNFα release in mice (LPS-induced TNFα release; 60 mpk po) [% INH] | LPS-induced IL-6 release in mice (result in words) (LPS-induced IL-6 release; 10, 30 and 60 mg/kg p.o.) | inhibition of LPS-induced IL-6 release in mice (LPS-induced IL-6 release; 10 mpk po) [% INH] | inhibition of LPS-induced IL-6 release in mice (LPS-induced IL-6 release; 30 mpk po) [% INH] | inhibition of LPS-induced IL-6 release in mice (LPS-induced IL-6 release; 60 mpk po) [% INH] | IC50 (IRAK1/4 human) [nM]
1 | Cc1ccc2c(-c3cn(-c4ccc(C5CCNCC5)cc4)nn3)n[nH]c2c1 (as salt: HCl) [Example 265] | 303 | – | – | – | – | – | – | – | – | – | – | –
2 | O=C(c1ccc(-n2cc(-c3n[nH]c4ccccc34)nn2)cc1)N1CCOCC1 [Example 1, 3-{1-[4-(morpholin-4-ylcarbonyl)phenyl]-1H-1,2,3-triazol-4-yl}-1H-indazole] | – | 100 to 1000 | 200 to 2000 | inhibits dose dependently | 36 | 43 | 61 | inhibits dose dependently | 9 | 25 | 66 | 100 to 1000
